Test results published in the NIST ThermoML archive (doi:10.1016/j.fluid.2016.02.018).
± gives the expanded uncertainty stated by the source.

Details: 293.2 K; 101.33 kPa; Liquid; Vibrating tube method

SMILES	mass density [kg/m3]
CC[n+]1ccc(C)cc1.O=S(=O)([N-]S(=O)(=O)C(F)(F)F)C(F)(F)F	1489.9 ± 0.7
CCn1cc[n+](C)c1.N#CN=C=[N-] [1-ethyl-3-methylimidazolium dicyanamide]	1104.9 ± 1.1
